Laboratory results reported in US20130296391A1, “PLANT DISEASE CONTROLLING COMPOSITION AND METHOD FOR CONTROLLING PLANT DISEASE” (SUMITOMO CHEMICAL COMPANY, LIMITED, priority 2010, published 2013).

Tested on: gray mold fungus (Botrytis cinerea)
Experiment: cucumber leaf disk test against gray mold fungus, preventive value
Format: in vivo
Details: single compound, 15° C., four days
Experimental: True leaf of cucumber was punched out with cork borer to 13 mm in diameter to prepare a leaf disk. In 24 well microwell plate that was dispensed with 1 ml 0:8% water agar, the leaf disk was placed such that the upper side of the leaf was in an upward direction. Thereto was added 20 micro liter a testing solution prepared by mixing a dimethyl sulfoxide solution of the present amide compound and a dimethyl sulfoxide solution of benomyl or carbendazim to a predetermined concentration to treat the leaf disk.
After confirming that the testing medical solution was dried, conidium of gray mold fungus (Botrytis cinerea) was suspended into potato dextrose broth (DIFCO) in a density of about 10^5 conidia/mL and was then subjected to a spray inoculation. After leaving to stand the leaf disk in a growth chamber set up at 15° C. for four days, an onset area on each leaf was measured and then calculated an onset area rate (hereinafter, referred to as an onset area rate belonging to treated group).
The same operation was carried out with 20 micro liter water instead of 20 micro liter the testing medicine solution to calculate an onset area rate (hereinafter, referred to an onset area rate belonging to non-treated group).
A preventive value was calculated from the above onset area rate belonging to treated group and the onset area rate belonging to non-treated group by the following equation:
Preventive value(%)=100×(A−B)/A
A: an onset area rate belonging to non-treated group
B: an onset area rate belonging to treated group
onset area rate=(onset area of the leaf disk)/(the total area of the leaf disk)
For comparison, the same operations as described in Test Examples 1 to 4 were carried out except that the testing medicine solution was substituted with predetermined concentration of a dimethyl sulfoxide solution of benomyl or carbendazim, so as to calculate a preventive value.

[1] = treatment concentration 0.5 ppm
[2] = treatment concentration 5.0 ppm

SMILES: CCCCNC(=O)n1c(NC(=O)OC)nc2ccccc21 [benomyl]
- preventive value (%) [1]: 47.5%
- preventive value (%) [2]: 56.5%

SMILES: COC(=O)Nc1nc2ccccc2[nH]1 [carbendazim]
- preventive value (%) [1]: 45%
- preventive value (%) [2]: 55.5%

SMILES: CNC(=O)C(OC)c1ccccc1COc1cc(C)ccc1C (stereo not drawn) [the present amide compound]
- preventive value (%) (treatment concentration 1.0 ppm): 46%
- preventive value (%) (treatment concentration 2.5 ppm): 55.5%
